Experimental data published in US5843889A, “Glycopeptide antibiotic derivatives” (Eli Lilly and Company, priority 1997, dated 1998).
In brackets after ≈: the same amount, converted by molar mass.

Tests used:
Experiment in all cases: MIC, standard broth micro-dilution assay
Assay type in all cases: cell-based
[1] = system: Entercoccus faecalis 2041
Description: (§1) The formula I compounds have in vitro and in vivo activity against Gram-positive pathogenic bacteria. The MIC's were determined using a standard broth micro-dilution assay.

[2] = system: Entercoccus faecalis 276
Description: as §1

[3] = system: Entercoccus gallinarum 245
Description: as §1

MIC [1] | MIC [2] | MIC [3] | SMILES
4 mg/L (≈ 2.19 µM) | 4 mg/L (≈ 2.19 µM) | 8 mg/L (≈ 4.38 µM) | CCCCCCCCCOc1ccc(CNC2(C)CC(OC3C(Oc4c5cc6cc4Oc4ccc(cc4Cl)C(OC4CC(C)(N)C(O)C(C)O4)C4NC(=O)C(NC(=O)C6NC(=O)C(CC(N)=O)NC(=O)C(NC(=O)C(CC(C)C)NC)C(O)c6ccc(c(Cl)c6)O5)c5ccc(O)c(c5)-c5c(O)cc(O)cc5C(C(=O)O)NC4=O)OC(CO)C(O)C3O)OC(C)C2O)cc1 (stereo not drawn) [Compound 8, 4-nonyloxybenzyl]
≤ .06 mg/L | ≤ .06 mg/L | ≤ .06 mg/L | CNC(CC(C)C)C(=O)NC1C(=O)NC(CC(N)=O)C(=O)NC2C(=O)NC3C(=O)NC(C(=O)NC(C(=O)O)c4cc(O)cc(O)c4-c4cc3ccc4O)C(OC3CC(C)(N)C(O)C(C)O3)c3ccc(c(Cl)c3)Oc3cc2cc(c3OC2OC(CO)C(O)C(O)C2OC2CC(C)(NCc3ccc(-c4ccccc4)cc3)C(O)C(C)O2)Oc2ccc(cc2)C1O (stereo not drawn) [Compound 185, 4-phenylbenzyl]
≤ 0.06 mg/L | ≤ 0.06 mg/L | ≤ 0.06 mg/L | CNC(CC(C)C)C(=O)NC1C(=O)NC(CC(N)=O)C(=O)NC2C(=O)NC3C(=O)NC(C(=O)NC(C(=O)O)c4cc(O)cc(O)c4-c4cc3ccc4O)C(OC3CC(C)(N)C(O)C(C)O3)c3ccc(c(Cl)c3)Oc3cc2cc(c3OC2OC(CO)C(O)C(O)C2OC2CC(C)(NCc3ccc(-c4ccc(F)cc4)cc3)C(O)C(C)O2)Oc2ccc(cc2Cl)C1O (stereo not drawn) [Compound 211, 4-[4-flurophenyl]benzyl]
≤ 0.06 mg/L | 0.5 mg/L (≈ 0.277 µM) | 2 mg/L (≈ 1.11 µM) | CNC(CC(C)C)C(=O)NC1C(=O)NC(CC(N)=O)C(=O)NC2C(=O)NC3C(=O)NC(C(=O)NC(C(=O)O)c4cc(O)cc(O)c4-c4cc3ccc4O)C(OC3CC(C)(N)C(O)C(C)O3)c3ccc(c(Cl)c3)Oc3cc2cc(c3OC2OC(CO)C(O)C(O)C2OC2CC(C)(NCc3ccc(-c4ccc([N+](=O)[O-])cc4)cc3)C(O)C(C)O2)Oc2ccc(cc2Cl)C1O (stereo not drawn) [Compound 64, 4-[4-nitrophenyl]benzyl]
≤ 0.06 mg/L | ≤ 0.06 mg/L | 4 mg/L (≈ 2.35 µM) | CNC(CC(C)C)C(=O)NC1C(=O)NC(CC(N)=O)C(=O)NC2C(=O)NC3C(=O)NC(C(=O)NC(C(=O)O)c4cc(O)cc(O)c4-c4cc3ccc4O)C(OC3CC(C)(N)C(O)C(C)O3)c3ccc(c(Cl)c3)Oc3cc2cc(c3OC2OC(CO)C(O)C(O)C2OC2CC(C)(NCc3ccccc3O)C(O)C(C)O2)Oc2ccc(cc2Cl)C1O (stereo not drawn) [Compound 169, 2-hydroxybenzyl]
≤ 0.06 mg/L | 0.5 mg/L (≈ 0.276 µM) | 4 mg/L (≈ 2.21 µM) | CNC(CC(C)C)C(=O)NC1C(=O)NC(CC(N)=O)C(=O)NC2C(=O)NC3C(=O)NC(C(=O)NC(C(=O)O)c4cc(O)cc(O)c4-c4cc3ccc4O)C(OC3CC(C)(N)C(O)C(C)O3)c3ccc(c(Cl)c3)Oc3cc2cc(c3OC2OC(CO)C(O)C(O)C2OC2CC(C)(NCc3cccc(OC(=O)C4CCCCC4)c3)C(O)C(C)O2)Oc2ccc(cc2Cl)C1O (stereo not drawn) [Compound 165, 3-cyclohexanoyloxybenzyl]
0.5 mg/L (≈ 0.28 µM) | 2 mg/L (≈ 1.12 µM) | 2 mg/L (≈ 1.12 µM) | CNC(CC(C)C)C(=O)NC1C(=O)NC(CC(N)=O)C(=O)NC2C(=O)NC3C(=O)NC(C(=O)NC(C(=O)O)c4cc(O)cc(O)c4-c4cc3ccc4O)C(OC3CC(C)(N)C(O)C(C)O3)c3ccc(c(Cl)c3)Oc3cc2cc(c3OC2OC(CO)C(O)C(O)C2OC2CC(C)(NCc3c4c(cc5ccccc35)CCCC4)C(O)C(C)O2)Oc2ccc(cc2Cl)C1O (stereo not drawn) [Compound 156, 1,2,3,4,-tetrahydro-9-anthranylmethyl]
≤ 0.06 mg/L | 0.5 mg/L (≈ 0.286 µM) | 8 mg/L (≈ 4.57 µM) | CNC(CC(C)C)C(=O)NC1C(=O)NC(CC(N)=O)C(=O)NC2C(=O)NC3C(=O)NC(C(=O)NC(C(=O)O)c4cc(O)cc(O)c4-c4cc3ccc4O)C(OC3CC(C)(N)C(O)C(C)O3)c3ccc(c(Cl)c3)Oc3cc2cc(c3OC2OC(CO)C(O)C(O)C2OC2CC(C)(NCC3CCC(c4ccccc4)C3)C(O)C(C)O2)Oc2ccc(cc2Cl)C1O (stereo not drawn) [Compound 140, 3-phenylcyclopentylmethyl]
1 mg/L (≈ 0.565 µM) | 1 mg/L (≈ 0.565 µM) | 2 mg/L (≈ 1.13 µM) | CNC(CC(C)C)C(=O)NC1C(=O)NC(CC(N)=O)C(=O)NC2C(=O)NC3C(=O)NC(C(=O)NC(C(=O)O)c4cc(O)cc(O)c4-c4cc3ccc4O)C(OC3CC(C)(N)C(O)C(C)O3)c3ccc(c(Cl)c3)Oc3cc2cc(c3OC2OC(CO)C(O)C(O)C2OC2CC(C)(NCC3CCC(C4CCCCC4)CC3)C(O)C(C)O2)Oc2ccc(cc2Cl)C1O (stereo not drawn) [Compound 164, 4-[cyclohexyl]cyclohexylmethyl]
≤ 0.06 mg/L | 1 mg/L (≈ 0.565 µM) | 4 mg/L (≈ 2.26 µM) | CC#CCCCCCCCCCCNC1(C)CC(OC2C(Oc3c4cc5cc3Oc3ccc(cc3Cl)C(OC3CC(C)(N)C(O)C(C)O3)C3NC(=O)C(NC(=O)C5NC(=O)C(CC(N)=O)NC(=O)C(NC(=O)C(CC(C)C)NC)C(O)c5ccc(c(Cl)c5)O4)c4ccc(O)c(c4)-c4c(O)cc(O)cc4C(C(=O)O)NC3=O)OC(CO)C(O)C2O)OC(C)C1O (stereo not drawn) [Compound 199, 11-tridecynyl]
2 mg/L (≈ 1.09 µM) | 4 mg/L (≈ 2.19 µM) | 1 mg/L (≈ 0.547 µM) | CCCCCc1ccc(-c2ccc(CNC3(C)CC(OC4C(Oc5c6cc7cc5Oc5ccc(cc5Cl)C(OC5CC(C)(N)C(O)C(C)O5)C5NC(=O)C(NC(=O)C7NC(=O)C(CC(N)=O)NC(=O)C(NC(=O)C(CC(C)C)NC)C(O)c7ccc(c(Cl)c7)O6)c6ccc(O)c(c6)-c6c(O)cc(O)cc6C(C(=O)O)NC5=O)OC(CO)C(O)C4O)OC(C)C3O)cc2)cc1 (stereo not drawn) [Compound 22, 4-[4-pentylphenyl]benzyl]
≤ 0.06 mg/L | 1 mg/L (≈ 0.55 µM) | 2 mg/L (≈ 1.1 µM) | CCOC(c1ccccc1)c1ccc(CNC2(C)CC(OC3C(Oc4c5cc6cc4Oc4ccc(cc4Cl)C(OC4CC(C)(N)C(O)C(C)O4)C4NC(=O)C(NC(=O)C6NC(=O)C(CC(N)=O)NC(=O)C(NC(=O)C(CC(C)C)NC)C(O)c6ccc(c(Cl)c6)O5)c5ccc(O)c(c5)-c5c(O)cc(O)cc5C(C(=O)O)NC4=O)OC(CO)C(O)C3O)OC(C)C2O)cc1 (stereo not drawn) [Compound 126]
≤ 0.06 mg/L | ≤ 0.06 mg/L | 2 mg/L (≈ 1.13 µM) | CN[C@H](CC(C)C)C(=O)N[C@H]1C(=O)N[C@@H](CC(N)=O)C(=O)N[C@H]2C(=O)N[C@H]3C(=O)N[C@H](C(=O)N[C@H](C(=O)O)c4cc(O)cc(O)c4-c4cc3ccc4O)[C@H](O[C@H]3C[C@](C)(N)[C@@H](O)[C@H](C)O3)c3ccc(c(Cl)c3)Oc3cc2cc(c3O[C@@H]2O[C@H](CO)[C@@H](O)[C@H](O)[C@H]2O[C@H]2C[C@](C)(NCc3ccc(-c4ccc(C)cc4)cc3)[C@@H](O)[C@H](C)O2)Oc2ccc(cc2Cl)[C@H]1O [Compound 97, 4-[4-methylphenyl]benzyl]
≤ 0.06 mg/L | ≤ 0.06 mg/L | 1 mg/L (≈ 0.553 µM) | CNC(CC(C)C)C(=O)NC1C(=O)NC(CC(N)=O)C(=O)NC2C(=O)NC3C(=O)NC(C(=O)NC(C(=O)O)c4cc(O)cc(O)c4-c4cc3ccc4O)C(OC3CC(C)(N)C(O)C(C)O3)c3ccc(c(Cl)c3)Oc3cc2cc(c3OC2OC(CO)C(O)C(O)C2OC2CC(C)(NCc3cccc(Oc4ccc(Cl)cc4)c3)C(O)C(C)O2)Oc2ccc(cc2Cl)C1O (stereo not drawn) [Compound 86]
≤ 0.06 mg/L | 0.5 mg/L (≈ 0.284 µM) | 4 mg/L (≈ 2.27 µM) | CNC(CC(C)C)C(=O)NC1C(=O)NC(CC(N)=O)C(=O)NC2C(=O)NC3C(=O)NC(C(=O)NC(C(=O)O)c4cc(O)cc(O)c4-c4cc3ccc4O)C(OC3CC(C)(N)C(O)C(C)O3)c3ccc(c(Cl)c3)Oc3cc2cc(c3OC2OC(CO)C(O)C(O)C2OC2CC(C)(NCc3ccc4cc(OC)ccc4c3)C(O)C(C)O2)Oc2ccc(cc2Cl)C1O (stereo not drawn) [Compound 65, 6-methoxy-2-naphthylmethyl]
2 mg/L (≈ 1.08 µM) | 2 mg/L (≈ 1.08 µM) | 2 mg/L (≈ 1.08 µM) | CNC(CC(C)C)C(=O)NC1C(=O)NC(CC(N)=O)C(=O)NC2C(=O)NC3C(=O)NC(C(=O)NC(C(=O)O)c4cc(O)cc(O)c4-c4cc3ccc4O)C(OC3CC(C)(N)C(O)C(C)O3)c3ccc(c(Cl)c3)Oc3cc2cc(c3OC2OC(CO)C(O)C(O)C2OC2CC(C)(NCc3ccc(OCCCCCCc4ccccc4)cc3)C(O)C(C)O2)Oc2ccc(cc2Cl)C1O (stereo not drawn) [Compound 219, 4-[6-phenylhexyloxy]benzyl]
≤ 0.06 mg/L | 0.25 mg/L (≈ 0.139 µM) | 4 mg/L (≈ 2.22 µM) | CNC(CC(C)C)C(=O)NC1C(=O)NC(CC(N)=O)C(=O)NC2C(=O)NC3C(=O)NC(C(=O)NC(C(=O)O)c4cc(O)cc(O)c4-c4cc3ccc4O)C(OC3CC(C)(N)C(O)C(C)O3)c3ccc(c(Cl)c3)Oc3cc2cc(c3OC2OC(CO)C(O)C(O)C2OC2CC(C)(NCc3ccc(-c4ccccc4[N+](=O)[O-])cc3)C(O)C(C)O2)Oc2ccc(cc2Cl)C1O (stereo not drawn) [Compound 102, 4-[2-nitrophenyl]benzyl]
0.5 mg/L (≈ 0.277 µM) | 2 mg/L (≈ 1.11 µM) | 1 mg/L (≈ 0.553 µM) | CNC(CC(C)C)C(=O)NC1C(=O)NC(CC(N)=O)C(=O)NC2C(=O)NC3C(=O)NC(C(=O)NC(C(=O)O)c4cc(O)cc(O)c4-c4cc3ccc4O)C(OC3CC(C)(N)C(O)C(C)O3)c3ccc(c(Cl)c3)Oc3cc2cc(c3OC2OC(CO)C(O)C(O)C2OC2CC(C)(NCc3ccc4ccc5cccc6ccc3c4c56)C(O)C(C)O2)Oc2ccc(cc2Cl)C1O (stereo not drawn) [Compound 16, 1-pyrenylmethyl]
≤ 0.06 mg/L | ≤ 0.06 mg/L | ≤ 0.06 mg/L | CNC(CC(C)C)C(=O)NC1C(=O)NC(CC(N)=O)C(=O)NC2C(=O)NC3C(=O)NC(C(=O)NC(C(=O)O)c4cc(O)cc(O)c4-c4cc3ccc4O)C(OC3CC(C)(N)C(O)C(C)O3)c3ccc(c(Cl)c3)Oc3cc2cc(c3OC2OC(CO)C(O)C(O)C2OC2CC(C)(NCc3ccc(OC)c4ccccc34)C(O)C(C)O2)Oc2ccc(cc2Cl)C1O (stereo not drawn) [Compound 15, 4-methoxy-1-naphthylmethyl]

SMILES | MIC [1] | MIC [2] | MIC [3]
C=CCOc1ccc(CNC2(C)CC(OC3C(Oc4c5cc6cc4Oc4ccc(cc4Cl)C(OC4CC(C)(N)C(O)C(C)O4)C4NC(=O)C(NC(=O)C6NC(=O)C(CC(N)=O)NC(=O)C(NC(=O)C(CC(C)C)NC)C(O)c6ccc(c(Cl)c6)O5)c5ccc(O)c(c5)-c5c(O)cc(O)cc5C(C(=O)O)NC4=O)OC(CO)C(O)C3O)OC(C)C2O)cc1 (stereo not drawn) [Compound 7, 4-allyloxybenzyl] | 0.125 mg/L (≈ 0.0719 µM) | 1 mg/L (≈ 0.575 µM) | 0.5 mg/L (≈ 0.288 µM)
